# Source: patent publication US20260207564A1, “DOSAGE REGIME OF ORFORGLIPRON FOR TREATING A SUBJECT WITH TYPE 2 DIABETES (T2D), OBESITY, OR OVERWEIGHT WITH AT LEAST ONE WEIGHT RELATED COMORBIDITY” (Eli Lilly and Company, priority 2022, published 2026)
# How the values were obtained:
# [1] = format: in vivo, human; settings: 26 weeks, 3 mg to 45 mg QD
# Protocol: Two Phase 2 studies have evaluated the safety and efficacy of Compound 1a for the treatment of T2D and another for treatment of obesity or overweight with at least one weight related comorbidity.
# The 36 and 45 mg cohorts were subdivided in a 36 mg-1 and 36 mg-2 as well as 45 mg-1 and 45 mg-2 respectively, as different starting doses, dose escalations and dose escalation steps were investigated in these subgroup cohorts (FIG. 4).
# Eligible male or female participants were >18 years of age with T2D with a HbA1c 7.0% to 10.5% and a body mass index (BMI) of ≥23 kg/m2, treated with diet and exercise alone or with a stable dose of metformin and with a stable body weight (≤5% body weight gain and/or loss) for at least 3 months prior to screening/Visit 1.
# The study period included a 2-week screening/lead in period and a 26-week treatment period. During the treatment period, doses were escalated for all treatment groups. The dose escalation period ranged from 4 to 12 weeks depending on dose group. The initial dose was 2 or 3 mg followed by additional escalation steps depending on assigned cohort (FIG. 4). […] All participants were provided healthy eating and exercise education by study personnel throughout the trial.
# Key Safety and tolerability endpoints included the frequency of patient- and investigator-reported adverse events, rate and incidence of hypoglycaemia events (glucose <70 mg/dL [3.9 mmol/L] and ≥54 mg/dL [3.0 mmol/L], or glucose <54 mg/dL [3.0 mmol/L]), and change in safety laboratory parameters, electrocardiogram, and vital signs.
# The estimand used for efficacy analyses was an “efficacy estimand”, representing the average treatment effect for the randomized population if the treatment was administered as intended, thus including data from all randomized participants who received at least one dose of study drug and excluding data after permanent discontinuation of study drug. All tests of treatment effects were conducted at a 2-sided alpha level of 0.05 without adjustment for multiple comparisons, and 2-sided 95% CIs were calculated.
# Safety analyses were conducted by comparing safety of OFG with placebo and with dulaglutide irrespective of adherence to study drug. The safety analyses were conducted using the safety analysis set, which includes all randomized participants who received at least one dose of study drug. The results were presented in summary statistics, point estimates, and 95% confidence intervals along with p-values for treatment comparisons.
# [2] = Phase 1 studies of clinical pharmacology, PK and PD in healthy volunteers and in participants with T2D; format: in vivo, human
# Source text: The clinical pharmacology, PK, and PD of Compound 1a were studied in 2 completed Phase 1 studies in healthy volunteers and in participants with T2D).
# [3] = Phase 2 study in obesity or overweight with at least one weight related comorbidity, 36 weeks (Example 4A); format: in vivo, human
# Source text: The primary endpoint was the percentage change in body weight from baseline to week 26, with a secondary 36-week endpoint.
# A 36-week Phase 2, multicenter, randomized, double-blind, parallel, placebo-controlled study was designed to examine the efficacy and safety of 4 dose levels of once daily administered Compound 1a, compared with once daily administered placebo in participants with obesity or overweight with at least one weight related comorbidity. A total of 272 patients were randomized 5:5:5:3:3:3:3 to once daily placebo or Compound 1a maintenance doses of 12 mg, 24 mg, 36 mg (36-1, 36-2) or 45 mg (45-1, 45-2) treatment groups. The 36 and 45 mg cohorts were subdivided in a 36 mg-1 and 36 mg-2 as well as 45 mg-1 and 45 mg-2 respectively, as different starting doses, dose escalations and dose escalation steps were investigated in these subgroup cohorts (FIG. 2). The different dose escalations were performed to assess the maintenance dose and titration steps for future trials.
# Eligible male or female participants were >18 years of age with a HbA1c<6.5% (48 mmol/mol) and a BMI of ≥30 kg/m2 or ≥27 kg/m2 and <30 kg/m2 with at least 1 of the following weight-related comorbidities: hypertension, dyslipidemia, cardiovascular disease, or obstructive sleep apnea.
# The study period included a 2-week screening/lead in period, a 36-week treatment period followed by a 2 week off-drug safety follow-up period. During the treatment period, doses were escalated for all treatment groups. The dose escalation period ranged from 0 to 16 weeks depending on dose group. The initial dose was 2 or 3 mg followed by additional escalation steps depending on assigned cohort (FIG. 2). Compound 1a or matching placebo was administered daily by oral capsule. All participants were provided healthy eating and exercise education by study personnel throughout the trial.
# The primary endpoint was percent change in body weight from baseline at week 26. Secondary endpoints included percent change in body weight from baseline at week 36, change from baseline in body weight (kg), BMI (kg/m2) and waist circumference (cm), and percentage of study participants who achieved ≥5% body weight (kg) reduction, and ≥10% body weight (kg) reduction, at week 26 and week 36. Key safety endpoints included adverse events, blood pressure, heart rate, safety laboratory measures, PK parameters, and patient-reported outcomes.
# A sample size of 270 participants was calculated to provide at least 90% power for testing superiority of Compound 1 versus placebo in the primary endpoint. The estimand used for efficacy analyses was an “efficacy estimand”, representing the average treatment effect for the randomized population if the treatment was administered as intended, thus including data from all randomized participants who received at least one dose of study drug and excluding data after permanent discontinuation of study drug. All tests of treatment effects were conducted at a 2-sided alpha level of 0.05 without adjustment for multiple comparisons, and 2-sided 95% CIs were calculated. To test efficacy of Compound 1a with adequate statistical power, for 36 mg and 45 mg the evaluation of the primary endpoint was made by pooling 2 dose escalation regimens (combining 36 mg-1 and 36 mg-2, for 36 mg, and combining 45 mg-1 and 45 mg-2, for 45 mg).
# Safety analyses were conducted by comparing safety of Compound 1a with placebo irrespective of adherence to study drug. The safety analyses were conducted using the safety analysis set, which includes all randomized participants who received at least one dose of study drug. The results were presented in summary statistics, point estimates, and 95% confidence intervals along with p-values for treatment comparisons.
# [4] = after 12 weeks of treatment, 9 mg QD to 45 mg QD, people with T2D
structure (smiles),measurement,setting,value
"Cc1cc(-n2nc3c(c2-n2ccn(-c4ccc5c(cnn5C)c4F)c2=O)[C@H](C)N(C(=O)c2cc4cc([C@H]5CCOC(C)(C)C5)ccc4n2[C@@]2(c4noc(=O)[nH]4)C[C@@H]2C)CC3)cc(C)c1F [Compound 1a, 3-[(1S,2S)-1-[5-[(4S)-2,2-dimethyloxan-4-yl]-2-[(4S)-2-(4-fluoro-3,5-dimethylphenyl)-3-[3-(4-fluoro-1-methylindazol-5-yl)-2-oxoimidazol-1-yl]-4-methyl-6,7-dihydro-4H-pyrazolo[4,3-c]pyridine-5-carbonyl]indol-1-yl]-2-methylcyclopropyl]-4H-1,2,4-oxadiazol-5-one]",HbA1c treatment difference vs placebo,[1],−1.7%
same,mean changes from baseline in HbA1c,[1],up to −2.1%
same,mean weight loss,[1],up to 10 kg
same,weight loss treatment difference vs placebo,[1],8 kg
same,PK of Compound 1a plasma concentration increase with dose,[2]; 9 mg QD to 45 mg QD dose range,approximately proportional to the increase of dose
same,PK profile,[2]; Phase 1 studies,appropriate for once daily oral dosing
same,most reported AEs,[2]; Phase 1 studies,"nausea, vomiting, and constipation"
same,improvements in HbA1c,[2]; [4],up to −1.4%
same,weight loss,[2]; [4],up to −5.8 kg
same,percentage of patients who had weight reduction of 15% or more,"[3]; 36 weeks, 45 mg",48%
same,percentage of patients who had weight reduction of 10% or more,"[3]; 36 weeks, across dose groups",47% to 75
same,percentage of patients who reported AEs,[3]; across dose groups,86% to 90.2
same,mean reduction in systolic blood pressure (SBP),"[3]; baseline to week 26, across dose groups",−4.8 to −10.5 mmHg
same,mean reduction in systolic blood pressure (SBP),"[3]; baseline to week 36, across dose groups",−6.7 to −10.5 mmHg
same,tolerability by escalation interval,[3]; dose escalated every 3 weeks compared to every 1-2 weeks,superior tolerability
same,Liver function tests compared with placebo,[3]; in vivo,not significantly increased
same,Most common TEAEs,[3]; in vivo,"GI related (nausea, vomiting, diarrhea and constipation)"
same,diastolic blood pressure (DBP) compared to placebo,[3]; in vivo,No differences were noted
same,health-related quality of life and physical activity readouts versus placebo,[3]; in vivo,greater improvements
same,most common adverse events,[3]; in vivo,"gastrointestinal, mild to moderate in severity"
same,most common events reported,[3]; in vivo,"Nausea, constipation, vomiting, diarrhea, and eructation"
same,prespecified weight and cardiometabolic measures,[3]; in vivo,improvements in all prespecified weight and cardiometabolic measures
same,mean percent weight loss compared to placebo,[3]; primary 26-week endpoint,11%
same,mean percent weight loss from baseline,[3]; primary 26-week endpoint,up to 13%
same,GI AE events by starting dose,[3]; starting dose of 3 mg versus 2 mg starting dose,higher GI AE events
same,mean percentage change in body weight from baseline,"[3]; week 26, across dose groups 12-45 mg",−8.6% to −12.6
same,HDL cholesterol versus placebo,[3]; week 36,no significant change
same,"changes in the fasting lipids (triglycerides, total cholesterol, non-HDL cholesterol, LDL and VLDL)",[3]; week 36,Benefits with Compound 1a were noted
same,mean percentage change in body weight from baseline,"[3]; week 36, across dose groups 12-45 mg",−9.4% to −14.7
